Here are results for eleven compounds from US9770026B2, “Substituted pyrimidine compound and uses thereof” (Shenyang Sinochem Agrochemicals R&D Co., Ltd., priority 2012, dated 2017).

Test [1] has as its system corn rust. In words: protectant activity in vivo against corn rust. The following applies: for control effect against corn rust (%): protectant activity.
Test [2] has as its system cucumber downy mildew. In words: protectant activity in vivo against cucumber downy mildew. The following applies: for control effect against cucumber downy mildew (%): protectant activity.
The test system of test [3] is Green peach aphids (Myzus Persicae Sulzer). Kind of test: bioactivity test against green peach aphid, airbrush foliar spray. It is filed as in vivo. The settings on record: for Insecticidal activity against peach aphid (%): contrastive test. On the procedure:
(§1) Compounds were dissolved in mixed solvent (acetone:methanol=1:1), and diluted to required concentration with water containing 0.1% of tween 80.
(§2) Diamond back moth, armyworm, peach aphid and carmine spider mite were used as targets and the method of spraying by airbrush was used for determination of insecticidal biassays.
Method: Filter papers were put in culture dishes (Diameter=6 cm), and water was dripped on filter papers for preserving moisture. Green peach aphids (Myzus Persicae Sulzer) were maintained on cabbage. Leaves (Diameter=3 cm) of approximately 15-30 aphids were put in the culture dishes. Bioactivity tests were used the method of Airbrush Foliar Spray, pressure=10 psi (0.7 kg/cm2), spray volume=0.5 mL. The studies were conducted at […] 25±1 C in incubator cabinets with 60±5% RH. Survey the survival aphids after 48 hrs and calculate the death rates.

The test system of test [4] is wheat powdery mildew. In words: protectant activity in vivo against wheat powdery mildew. The settings on record: for control effect against wheat powdery mildew (%): protectant activity.
Test [5] deals with carmine spider mite. In words: bioactivity test against carmine spider mite, airbrush spray. In kind it is in vivo. The following applies: for control against carmine spider mite: mortality after 72 hrs; for Insecticidal activity against carmine spider mite (% ): contrastive test. As to the method:
as §1, §2
The method: Broadbean shoots with two true leaves in pot were taken, the healthy adults of carmine spider mite were inoculated to the leaves. The adults were counted and then sprayed with airbrush at the pressure of 0.7 kg/cm^2 and at dose of 0.5 ml. 3 replicates were set for each treatment. And then they were maintained in standard observation room. Scores were conducted and mortalities were calculated after 72 hrs.

[6] abbreviates: 600 ppm, death rate after 48 hrs.
[7] abbreviates: 100 ppm, death rate after 48 hrs.
Setting [8] is: 10 ppm, death rate after 48 hrs.

Each structure is given as a SMILES string.

For the compound `CCc1nc(C)nc(NCCc2ccc(Oc3nc(Cl)c(Cl)cc3Cl)cc2)c1Cl` [Compound I-6790], the pest or weed control at 400 ppm was determined as 100% in test [1] (Zea mays, 168 h, read-out: protectant activity against corn rust in vivo, 400 ppm); 100% in test [2] (Cucumis sativus, 168 h, read-out: protectant activity against cucumber downy mildew in vivo, 400 ppm); 100% in test [4] (Triticum aestivum, 168 h, read-out: protectant activity against wheat powdery mildew in vivo, 400 ppm). Besides, the pest or weed control at 25 ppm in test [2] (Cucumis sativus, 168 h, read-out: protectant activity against cucumber downy mildew in vivo, 25 ppm) was 80 to 99%. Moreover, the pest or weed control at 50 ppm in test [2] (Cucumis sativus, 168 h, read-out: protectant activity against cucumber downy mildew in vivo, 50 ppm) is 80 to 99%. Further, in test [2] (Cucumis sativus, 168 h, read-out: protectant activity against cucumber downy mildew in vivo, 100 ppm), the pest or weed control at 100 ppm lay in the range of 80 to 99%. In addition, the pest or weed control at 600 ppm in test [3] (Myzus persicae, foliar, 48 h, 600 ppm, death rate after 48 hrs) amounted to 100%.

Consider `COc1ccc(Oc2ccc(CCNc3nc(C)nc(Cl)c3Cl)cn2)cc1` [III-2539], for which the “protectant activity against corn rust in vivo” value in test [1] (400 ppm) is on record as 100%. Also, in test [5] (600 ppm), the “control against carmine spider mite” value is 100%. Also, the “control effect against cucumber downy mildew (%)” value in test [2] (12.5 mg/L) was determined as 85%; in test [2] (25 mg/L), 100%; in test [2] (50 mg/L), 100%; in test [2] (100 mg/L) it was 100%; in test [2] (400 mg/L), 100%. For the same compound, the “protectant activity against cucumber downy mildew in vivo” value in test [2] (25 ppm), in test [2] (50 ppm), in test [2] (100 ppm) and in test [2] (400 ppm) was 100% in each case. Moreover, in test [3] (setting [6]), the “control (test results against green peach aphid)” value was 100%.

Take `FC(F)c1ncnc(NCCc2ccc(Oc3ncc(Cl)cc3Cl)cc2)c1Cl` [Compound I-2555]: the “protectant activity against corn rust in vivo” value in test [1] (400 ppm) was 100%. Also, the “protectant activity against cucumber downy mildew in vivo” value in test [2] (400 ppm) is reported as 100%. Further, the “control (test results against green peach aphid)” value in test [3] (setting [7]) and in test [3] (setting [6]) was 100% throughout. The “protectant activity against wheat powdery mildew in vivo” value in test [4] (25 ppm), in test [4] (100 ppm) and in test [4] (400 ppm) was 100% throughout.

Consider `CCc1ncnc(NCCc2ccc(Oc3ncccc3C(F)(F)F)cc2)c1Cl` [Compound I-987], for which the “protectant activity against corn rust in vivo” value in test [1] (100 ppm) and in test [1] (400 ppm) was 100% throughout. Further, the “Insecticidal activity against carmine spider mite (% )” value in test [5] (10 mg/L) stood at 80%; in test [5] (100 mg/L), 100%; in test [5] (600 mg/L), 100%. Moreover, the “control against carmine spider mite” value in test [5] (100 ppm) and in test [5] (600 ppm) was 100% in each case. In addition, the “protectant activity against cucumber downy mildew in vivo” value in test [2] (100 ppm) and in test [2] (400 ppm) was 100% throughout. Further, the “control (test results against green peach aphid)” value in test [3] (setting [8]), in test [3] (setting [7]) and in test [3] (setting [6]) was 100% throughout. Moreover, the “protectant activity against wheat powdery mildew in vivo” value in test [4] (100 ppm) and in test [4] (400 ppm) was 100% in each case.

In the case of `CCOC(=O)c1ccc(Oc2ccc(CCNc3ncnc(CC)c3Cl)cc2)nc1` [Compound I-267], the “protectant activity against corn rust in vivo” value in test [1] (400 ppm) came out at 100%. For the same compound, in test [5] (600 ppm), the “control against carmine spider mite” value was 100%. The “control (test results against green peach aphid)” value in test [3] (setting [8]), in test [3] (setting [7]) and in test [3] (setting [6]) was 100% throughout. Besides, the “protectant activity against wheat powdery mildew in vivo” value in test [4] (100 ppm) and in test [4] (400 ppm) was 100% each time.

In the case of `CCc1ncnc(NCCc2ccc(Oc3ncc(C(F)(F)F)cc3Cl)cc2)c1Cl` [Compound I-602], the “control against carmine spider mite” value in test [5] (600 ppm) amounted to 100%. In addition, the “protectant activity against cucumber downy mildew in vivo” value in test [2] (100 ppm) and in test [2] (400 ppm) was 100% in each case. Also, the “control (test results against green peach aphid)” value in test [3] (setting [7]) and in test [3] (setting [6]) was 100% each time. Also, the “protectant activity against wheat powdery mildew in vivo” value in test [4] (100 ppm) and in test [4] (400 ppm) was 100% throughout.

Take `CCOC(=O)c1ccc(Oc2ccc(CCNc3ncnc(C)c3Cl)cc2)nc1` [Compound I-35]: the “protectant activity against corn rust in vivo” value in test [1] (100 ppm) and in test [1] (400 ppm) was 100% each time. The “protectant activity against cucumber downy mildew in vivo” value in test [2] (400 ppm) is listed as 100%. Besides, the “control (test results against green peach aphid)” value in test [3] (setting [8]), in test [3] (setting [7]) and in test [3] (setting [6]) was 100% throughout. For the same compound, in test [4] (400 ppm), the “protectant activity against wheat powdery mildew in vivo” value amounted to 100%.

`Cc1ncnc(NCCc2ccc(Oc3ncccc3C(F)(F)F)cc2)c1Cl` [Compound I-929]: the “protectant activity against corn rust in vivo” value in test [1] (400 ppm) is given as 100%. For the same compound, in test [5] (600 ppm), the “control against carmine spider mite” value was found to be 100%. Moreover, the “control (test results against green peach aphid)” value in test [3] (setting [6]) came out at 100%. Moreover, in test [4] (400 ppm), the “protectant activity against wheat powdery mildew in vivo” value is listed as 100%.

As for `CC(F)c1ncnc(NCCc2ccc(Oc3ncc(C(F)(F)F)cc3Cl)cc2)c1Cl` (stereo not shown) [CK2, reference compound], the “control effect against corn rust (%)” value worked out at 85% in test [1] (6.25 mg/L), 100% in test [1] (25 mg/L), 100% in test [1] (100 mg/L) and 100% in test [1] (400 mg/L). Moreover, the “Insecticidal activity against carmine spider mite (% )” value stood at 32% in test [5] (10 mg/L), 100% in test [5] (100 mg/L) and 100% in test [5] (600 mg/L). In addition, the “Insecticidal activity against peach aphid (%)” value turned out to be 0% in test [3] (1.25 mg/L); 23% in test [3] (2.5 mg/L); 37% in test [3] (5 mg/L); 95% in test [3] (10 mg/L); 100% in test [3] (100 mg/L); 100% in test [3] (600 mg/L). Further, the “control effect against wheat powdery mildew (%)” value is given as 0% in test [4] (6.25 mg/L), 80% in test [4] (25 mg/L), 100% in test [4] (100 mg/L) and 100% in test [4] (400 mg/L).

With `Cc1ncnc(NCCc2ccc(Oc3ccccc3Cl)nc2)c1Cl` [III-5], in test [5] (600 ppm), the “control against carmine spider mite” value is on record as 100%. The “control effect against cucumber downy mildew (%)” value in test [2] (25 mg/L), in test [2] (50 mg/L), in test [2] (100 mg/L) and in test [2] (400 mg/L) was 100% in each case. The “protectant activity against cucumber downy mildew in vivo” value in test [2] (25 ppm), in test [2] (50 ppm), in test [2] (100 ppm) and in test [2] (400 ppm) was 100% each time. Also, in test [3] (setting [6]), the “control (test results against green peach aphid)” value is 100%. Further, the “protectant activity against wheat powdery mildew in vivo” value in test [4] (400 ppm) is recorded as 100%.

In the case of `CCc1ncnc(NCCc2ccc(Oc3ccc(C(F)(F)F)cc3Cl)nc2)c1Cl` [III-301], the “protectant activity against corn rust in vivo” value in test [1] (100 ppm) and in test [1] (400 ppm) was 100% throughout. In addition, the “control effect against cucumber downy mildew (%)” value in test [2] (6.25 mg/L), in test [2] (12.5 mg/L), in test [2] (25 mg/L), in test [2] (50 mg/L), in test [2] (100 mg/L) and in test [2] (400 mg/L) was 100% in each case. Also, the “protectant activity against cucumber downy mildew in vivo” value in test [2] (6.25 ppm), in test [2] (12.5 ppm), in test [2] (25 ppm), in test [2] (50 ppm), in test [2] (100 ppm) and in test [2] (400 ppm) was 100% in each case. Besides, the “Insecticidal activity against peach aphid (%)” value in test [3] (10 mg/L), in test [3] (100 mg/L) and in test [3] (600 mg/L) was 100% throughout. Further, the “control (test results against green peach aphid)” value in test [3] (setting [8]), in test [3] (setting [7]) and in test [3] (setting [6]) was 100% in each case. Moreover, the “protectant activity against wheat powdery mildew in vivo” value in test [4] (100 ppm) and in test [4] (400 ppm) was 100% throughout.
